Data taken from publication PMC3116808 (Journal of natural products, 2011).
In brackets after ≈: the same amount, converted by molar mass.

Columns and labels:
Assay type in all cases: cell-based
[1] = tested on: P388 lymphocytic leukemia cell line; assay: Murine P388 lymphocytic leukemia cell line growth inhibition
[2] = tested on: DU-145; assay: Human cancer cell line minipanel: prostate DU-145
[3] = tested on: NCI-H460; assay: Human cancer cell line minipanel: lung NCI-H460
[4] = tested on: SF-268; assay: Human cancer cell line minipanel: CNS SF-268
[5] = tested on: KM20L2; assay: Human cancer cell line minipanel: colon KM20L2; conditions: KM-20L2
[6] = tested on: MCF-7; assay: Human cancer cell line minipanel: breast MCF-7; conditions: MCF7
[7] = tested on: BXPC-3; assay: Human cancer cell line minipanel: pancreas BXPC-3
[8] = tested on: panel of murine and human cancer cell lines; assay: Cancer cell growth inhibition, summary over the panel

Row | SMILES | ED50 [1] [ng/mL] | ED50 (nanomolar value in parentheses) [1] [nM] | GI50 [2] [ng/mL] | GI50 [3] [ng/mL] | GI50 [4] [ng/mL] | GI50 [5] [ng/mL] | GI50 [6] [ng/mL] | GI50 [7] [µg/mL] | GI50 [8] [ng/mL]
1 | CC[C@H](C)[C@@H]([C@@H](CC(=O)N1CCC[C@H]1[C@H](OC)[C@@H](C)C(=O)NCCc1ccc(OP(=O)([O-])[O-])cc1)OC)N(C)C(=O)[C@@H](NC(=O)[C@H](C(C)C)N(C)C)C(C)C.[K+].[K+] [3c, Potassium Auristatin TP] | 7.6 | 8.7 | – | – | – | – | – | – | –
2 | CC[C@H](C)[C@@H]([C@@H](CC(=O)N1CCC[C@H]1[C@H](OC)[C@@H](C)C(=O)NCCc1ccc(OP(=O)([O-])[O-])cc1)OC)N(C)C(=O)[C@@H](NC(=O)[C@H](C(C)C)N(C)C)C(C)C.[Na+].[Na+] [3b, Sodium Auristatin TP] | < 1 | < 1.2 | 0.54 | 0.88 | 1.25 | 0.61 | 0.68 | 0.046 | –
3 | CC[C@H](C)[C@@H]([C@@H](CC(=O)N1CCC[C@H]1[C@H](OC)[C@@H](C)C(=O)NCCc1ccc(O)cc1)OC)N(C)C(=O)[C@@H](NC(=O)[C@H](C(C)C)N(C)C)C(C)C [compound 9, Dov-Val-Dil-Dap-4-hydroxyphenethylamide] | 3.6 (≈ 5.01 nM) | 5.0 | – | – | – | – | – | – | –
4 | CC[C@H](C)[C@@H]([C@@H](CC(=O)N1CCC[C@H]1[C@H](OC)[C@@H](C)C(=O)Nc1ccc2ncccc2c1)OC)N(C)C(=O)[C@@H](NC(=O)[C@H](C(C)C)N(C)C)C(C)C [compound 5, Dov-Val-Dil-Dap-6-aminoquinoline] | 2.6 (≈ 3.59 nM) | 3.59 | 0.3 (≈ 0.414 nM) | 0.36 (≈ 0.497 nM) | 0.16 (≈ 0.221 nM) | 0.25 (≈ 0.345 nM) | 0.14 (≈ 0.193 nM) | 0.00031 (≈ 0.428 nM) | 0.1 (≈ 0.138 nM)
5 | CC[C@H](C)[C@@H]([C@@H](CC(=O)N1CCC[C@H]1[C@H](OC)[C@@H](C)C(=O)Nc1ccc2ccccc2n1)OC)N(C)C(=O)[C@@H](NC(=O)[C@H](C(C)C)N(C)C)C(C)C [compound 4, Dov-Val-Dil-Dap-2-aminoquinoline] | 31 (≈ 42.8 nM) | 42.8 | 23 (≈ 31.7 nM) | 16 (≈ 22.1 nM) | 29 (≈ 40 nM) | 7.7 (≈ 10.6 nM) | 4.6 (≈ 6.34 nM) | 0.029 (≈ 40 nM) | –
